# According to patent US10407381B2 (THE BOARD OF TRUSTEES OF THE UNIVERSITY OF ILLINOIS, priority 2015, dated 2019):
# Like-named read-outs stand apart in the source and are kept apart here.
# Legend:
# 5-HT2A = 5-HT2A (Homo sapiens, UniProt P28223); assay: Calcium flux (FLIPR) assay, human 5-HT2A stably expressed in HEK-293 (Flp-In-293) cells; details: human 5-HT2A in HEK-293 cells, FLIPR; for EC50: EC50, nM 5-HT2A, NA = no activity at 10 μM; for Emax, % 5-HT 5-HT2A: normalized to 5-HT
# human 5-HT2C-INI = target: T1, human 5-HT2C-INI (Homo sapiens, UniProt P28335); assay: Calcium flux (FLIPR) assay, human 5-HT2C-INI stably expressed in HEK-293 (Flp-In-293) cells; details: for Emax, % 5-HT 5-HT2C: normalized to 5-HT
# T1 sequence (P28335 33-458): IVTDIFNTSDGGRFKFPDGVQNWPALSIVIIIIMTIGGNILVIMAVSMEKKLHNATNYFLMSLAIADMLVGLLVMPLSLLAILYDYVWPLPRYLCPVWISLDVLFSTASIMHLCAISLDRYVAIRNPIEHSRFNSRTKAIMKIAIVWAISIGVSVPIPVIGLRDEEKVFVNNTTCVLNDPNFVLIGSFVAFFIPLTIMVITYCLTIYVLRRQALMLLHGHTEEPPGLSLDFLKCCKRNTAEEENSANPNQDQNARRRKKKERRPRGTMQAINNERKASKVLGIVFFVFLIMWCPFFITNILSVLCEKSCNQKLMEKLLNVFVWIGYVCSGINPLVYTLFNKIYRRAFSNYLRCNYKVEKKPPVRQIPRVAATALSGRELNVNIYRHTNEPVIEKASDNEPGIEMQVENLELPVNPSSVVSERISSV
# 5-HT2B = 5-HT2B (Homo sapiens, UniProt P41595); assay: Calcium flux (FLIPR) assay, human 5-HT2B stably expressed in HEK-293 (Flp-In-293) cells; details: human 5-HT2B in HEK-293 cells; for EC50: EC50, nM 5-HT2B, NA = no activity at 10 μM; for Emax, % 5-HT 5-HT2B: normalized to 5-HT
# [1] = EC50, nM 5-HT2C, human 5-HT2C-INI in HEK-293 cells, FLIPR, NA = no activity at 10 μM
# [2] = human 5-HT2C-INI in HEK-293 cells, FLIPR
# Sequence of 5-HT2B (P41595 whole entry): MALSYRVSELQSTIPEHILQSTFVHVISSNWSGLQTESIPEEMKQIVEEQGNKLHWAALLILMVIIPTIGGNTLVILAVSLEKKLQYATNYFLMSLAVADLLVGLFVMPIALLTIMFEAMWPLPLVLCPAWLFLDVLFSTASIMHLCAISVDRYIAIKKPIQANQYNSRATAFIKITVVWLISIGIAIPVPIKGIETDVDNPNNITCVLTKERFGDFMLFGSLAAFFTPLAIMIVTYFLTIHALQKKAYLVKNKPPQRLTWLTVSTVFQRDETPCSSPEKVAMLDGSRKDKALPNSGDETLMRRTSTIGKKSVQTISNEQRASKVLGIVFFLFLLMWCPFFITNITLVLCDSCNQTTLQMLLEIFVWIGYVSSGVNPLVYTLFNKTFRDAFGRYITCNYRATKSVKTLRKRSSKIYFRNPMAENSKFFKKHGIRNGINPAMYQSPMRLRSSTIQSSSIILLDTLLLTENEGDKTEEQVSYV
# Sequence of 5-HT2A (P28223 whole entry): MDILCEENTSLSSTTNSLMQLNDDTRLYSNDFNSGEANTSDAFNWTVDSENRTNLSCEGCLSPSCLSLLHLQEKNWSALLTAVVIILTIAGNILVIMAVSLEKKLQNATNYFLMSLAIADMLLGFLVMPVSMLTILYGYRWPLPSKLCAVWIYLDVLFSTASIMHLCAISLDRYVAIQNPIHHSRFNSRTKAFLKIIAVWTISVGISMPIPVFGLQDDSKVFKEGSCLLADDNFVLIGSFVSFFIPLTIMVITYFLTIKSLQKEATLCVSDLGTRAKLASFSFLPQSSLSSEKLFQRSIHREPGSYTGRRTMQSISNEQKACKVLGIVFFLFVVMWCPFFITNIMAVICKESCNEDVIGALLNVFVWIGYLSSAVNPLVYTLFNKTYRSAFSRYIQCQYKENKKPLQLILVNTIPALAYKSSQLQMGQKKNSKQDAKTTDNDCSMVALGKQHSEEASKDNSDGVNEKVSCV
SMILES,EC50 (5-HT2A),"Emax, % 5-HT 5-HT2A (5-HT2A)",EC50 (human 5-HT2C-INI; [1]),"Emax, % 5-HT 5-HT2C (human 5-HT2C-INI; [2])",EC50 (5-HT2B),"Emax, % 5-HT 5-HT2B (5-HT2B)","EC50 (human 5-HT2C-INI; read-out: EC50, nM 5-HT2C, human 5-HT2C-INI in HEK-293 cells, FLIPR, NA = no activity at 10 μM)","EC50 (human 5-HT2C-INI; EC50, nM 5-HT2C)"
"CCOc1cc(F)c(Cl)cc1C1CC1CN (single isomer, unassigned; (-)) [(−)-Example 2, (−)-(2-(5-Chloro-2-ethoxy-4-fluorophenyl)cyclopropyl)methanamine]",1240 nM,(18%) % 5-HT,118 nM,(92%) % 5-HT,,,,
"C=CCOc1ccc(F)cc1C1CC1CN (single isomer, unassigned; (-)) [(−)-Example 8, (−)-(2-(2-(Allyloxy)-5-fluorophenyl)cyclopropyl)methanamine]",697 nM,(56%) % 5-HT,157 nM,(87%) % 5-HT,,,,
"C=CCOc1cc(F)c(Cl)cc1C1CC1CN (single isomer, unassigned; (+)) [(+)-Example 5, (+)-(2-(2-(Allyloxy)-5-chloro-4-fluorophenyl)cyclopropyl)methanamine]",,,42 nM,(87%) % 5-HT,1000 nM,(44%) % 5-HT,,
"C=CCOc1ccc(F)c(F)c1C1CC1CN (single isomer, unassigned; (+)) [(+)-Example 49, (+)-(2-(6-(Allyloxy)-2,3-difluorophenyl)cyclopropyl)methanamine]",,,36 nM,(100%) % 5-HT,3340 nM,(35%) % 5-HT,,
"NCC1CC1c1c(OCCF)ccc(F)c1Cl (single isomer, unassigned; (-)) [(−)-Example 52, (−)-(2-(2-Chloro-3-fluoro-6-(2-fluoroethoxy)phenyl)cyclopropyl)methanamine]",,,,(80%) % 5-HT,,(29%) % 5-HT,135 nM,
"CCCOc1ccc(Cl)cc1C1CC1CN (single isomer, unassigned; (-)) [(−)-Example 12, (−)-(2-(5-Chloro-2-propoxyphenyl)cyclopropyl)methanamine]",,,1230 nM,(31%) % 5-HT,3000 nM,(21%) % 5-HT,,
"NCC1CC1c1cc(Cl)ccc1OCCCF (single isomer, unassigned; (-)) [(−)-Example 20, (−)-(2-(5-Chloro-2-(3-fluoropropoxy)phenyl)cyclopropyl)methanamine]",,,1260 nM,(24%) % 5-HT,6170 nM,(22%) % 5-HT,,
"C=CCOc1cc(F)c(Cl)cc1C1CC1CN (single isomer, unassigned; (-)) [(−)-Example 5, (−)-(2-(2-(Allyloxy)-5-chloro-4-fluorophenyl)cyclopropyl)methanamine]",,,308 nM,(77%) % 5-HT,1960 nM,(22%) % 5-HT,,
"C=CCOc1ccc(F)c(F)c1C1CC1CN (single isomer, unassigned; (-)) [(−)-Example 49, (−)-(2-(6-(Allyloxy)-2,3-difluorophenyl)cyclopropyl)methanamine]",,,151 nM,(89%) % 5-HT,4460 nM,(26%) % 5-HT,,
"C=CCOc1ccc(Cl)cc1C1CC1CN (single isomer, unassigned; (-)) [(−)-Example 23, (−)-(2-(2-(Allyloxy)-5-chlorophenyl)cyclopropyl)methanamine]",,,737 nM,(42%) % 5-HT,4300 nM,(28%) % 5-HT,,
"NCC1CC1c1c(OCCF)ccc(Cl)c1F (single isomer, unassigned; (+)) [(+)-Example 31, (+)-(2-(3-Chloro-2-fluoro-6-(2-fluoroethoxy)phenyl)cyclopropyl)methanamine]",,,71 nM,(86%) % 5-HT,,(15%) % 5-HT,,
"NCC1CC1c1c(OCCF)ccc(Cl)c1Cl (single isomer, unassigned; (-)) [(−)-Example 38, (−)-(2-(2,3-Dichloro-6-(2-fluoroethoxy)phenyl)cyclopropyl)methanamine]",,,224 nM,(85%) % 5-HT,10400 nM,(62%) % 5-HT,,
"CC(C)Oc1ccc(Cl)cc1C1CC1CN (single isomer, unassigned; (-)) [(−)-Example 14, (−)-(2-(5-Chloro-2-isopropoxyphenyl)cyclopropyl)methanamine]",,,2480 nM,(37%) % 5-HT,5660 nM,(19%) % 5-HT,,
"NCC1CC1c1cc(Cl)ccc1OCCF (single isomer, unassigned; (-)) [(−)-Example 19, (−)-(2-(5-Chloro-2-(2-fluoroethoxy)phenyl)cyclopropyl)methanamine]",,,1130 nM,(59%) % 5-HT,4520 nM,(31%) % 5-HT,,
"NCC1CC1c1c(OCCF)ccc(F)c1F (single isomer, unassigned; (-)) [(−)-Example 47, (−)-(2-(2,3-Difluoro-6-(2-fluoroethoxy)phenyl)cyclopropyl)methanamine]",,,509 nM,(78%) % 5-HT,,(29%) % 5-HT,,
"COCCOc1ccc(Cl)cc1C1CC1CN (single isomer, unassigned; (-)) [(−)-Example 17, (−)-(2-(5-Chloro-2-(2-methoxyethoxy)phenyl)cyclopropyl)methanamine]",,,667 nM,(45%) % 5-HT,5300 nM,(32%) % 5-HT,,
"CCCOc1cc(F)c(F)cc1C1CC1CN (single isomer, unassigned; (-)) [(−)-Example 43, (−)-(2-(4,5-Difluoro-2-propoxyphenyl)cyclopropyl)methanamine]",,,,(89%) % 5-HT,2970 nM,(13%) % 5-HT,,119 nM
"C#CCOc1cc(F)c(Cl)cc1C1CC1CN (single isomer, unassigned; (-)) [(−)-Example 6, (−)-(2-(5-Chloro-4-fluoro-2-(prop-2-yn-1-yloxy)phenyl)cyclopropyl)methanamine]",,,117 nM,(92%) % 5-HT,4210 nM,(33%) % 5-HT,,
